Measured values reported in patent US20030170194A1, “Pharmaceutical and/or cosmetic composition containing an organosiloxane and a phospholipid” (priority 2000, published 2003).

Format: physicochemical
Details: composition of 10% by weight phospholipid and 90% by weight hexamethyldisiloxane

- dissolves in higher concentration than in hexamethyldisiloxane alone: 10 fold
SMILES: Clc1ccccc1C(c1ccccc1)(c1ccccc1)n1ccnc1 [clotrimazole]
